Assay results: patent US20040077659A1, “Method for treating ppar gamma mediated diseases or conditions” (priority 2003, published 2004)

What was measured:
[1] = test system: Zucker Diabetic Fatty rats (ZDF fa/fa); assay: Diabetic rat study, 28-day; assay type: in vivo; parameters: total serum protein: unit not given here; conditions: for glycemic control / insulin: 28-day treatment, relative to vehicle treatment; for hematocrit (% RBC volume): vehicle 49±0.3; for hemodilution as indicated by hematocrit and total serum protein: day 28, versus vehicle group
Description: The five PPAR pan agonist molecules prepared above were administered by oral gavage to genetically altered rodents that simulate the human disease of type 2 Diabetes Mellitus (Zucker Diabetic Fatty rats (ZDF fa/fa)). As a control a PPAR gamma agonist 2-[2-(methoxycarbonyl)anilino]-3-{4-[2-(5-methyl-2-phenyl-1,3-oxazol-4-yl)ethoxy]phenyl}propanoic acid was also tested. This PPAR gamma agonist can be prepared as described in Cobb, J. E., et al., N-(2-Benzoylphenyl)-L-tyrosine PPARg agonists. 3. Structure-activity relationship and optimization of the N-aryl substituent., J. Med. Chem. 1998, 41, 5055-5069. As an additional control, one group was treated with vehicle alone.
While all five hPPAR pan agonist molecules were evaluated in the above study for 7 days, one of these pan agonists, 2-{4-[({4-{[4-(4-methoxyphenyl)-1-piperazinyl]methyl}-2-[4-(triflouromethyl)phenyl]-1,3-thiazol-5-yl}methyl)sulfanyl]phenoxy}-2-methylpropanoic acid, and the PPAR gamma agonist were tested for 28 days. Animals were treated earlier than in the 7-day study, before the development of diabetes as measured by increased plasma glucose. Measurements were obtained at 7 day intervals and the PPAR pan agonist molecule (♦) was compared to vehicle control (*) and the PPAR gamma agonist (□). [formula] [formula] [formula]

Cynomolgus monkeys = assay: Primate study, edema and hemodilution; assay type: in vivo, Cynomolgus monkey; conditions: oral once daily for 63 or 64 days, 1, 5 and 15 mg/kg
Description: In addition to the above rat studies, a primate study was conducted using the PPAR pan agonist 2-{4-[({4-{[4-(4-methoxyphenyl)-1-piperazinyl]methyl}-2-[4-(trifluoromethyl)phenyl]-1,3-thiazol-5-yl}methyl)sulfanyl]phenoxy}-2-methylpropanoic acid. In that study, male and female Cynomolgus monkeys were dosed orally once daily for 63 or 64 days with doses projected to provide greater than 3× the serum concentration needed to lower insulin resistance and serum glucose in diabetic patients. The animals were dosed at 0 mg/kg (control), 1 mg/kg, 5 mg/kg, and 15 mg/kg of the PPAR pan agonist. The animals were carefully observed for signs of edema and or hemodilution. Methods of evaluation during the in-life portion of the study included visual observation of swelling, particularly around the eyes and or genitals by a Board Certified pathologist, as well as evaluation of clinical hematology (red blood cell volume) and clinical chemistries (total serum protein) as evidence of hemodilution. At necropsy, careful examination for gross evidence of edema was based on palpation and careful examination of all issue. Special emphasis was given to the gross evaluation of subcutaneous tissue, all fat stores, lungs and all serous cavities.

Compound	body weight gain compared with vehicle treated animals ([1]; 28-day study)	glycemic control [1]	insulin [1]	total serum protein ([1]; after 28 days, vehicle 7.5±0.2)	hematocrit (% RBC volume) ([1]; after 28 days)	hemodilution as indicated by hematocrit and total serum protein [1]	edema in tissues examined histologically (Cynomolgus monkeys)	signs of edema or hemodilution during in-life or necropsy portions (Cynomolgus monkeys)	body weight increase from the start of dosing ([1]; 28-day study) [%]
COc1ccc(N2CCN(Cc3nc(-c4ccc(C(F)(F)F)cc4)sc3CSc3ccc(OC(C)(C)C(=O)O)cc3)CC2)cc1 [PPAR pan agonist, 2-{4-[({4-{[4-(4-Methoxyphenyl)-1-piperazinyl]methyl}-2-[4-(trifluoromethyl)phenyl]-1,3-thiazol-5-yl}methyl)sulfanyl]phenoxy}-2-methylpropanoic acid]	not significantly different from the vehicle treated animals	maintained glycemic control	lowered insulin	7.2±0.2	48±0.9	not significantly different from the vehicle group	No evidence of edema	no signs or suggestions of edema or hemodilution	–
COC(=O)c1ccccc1NC(Cc1ccc(OCCc2nc(-c3ccccc3)oc2C)cc1)C(=O)O (stereo not shown) [PPAR gamma agonist, 2-[2-(methoxycarbonyl)anilino]-3-{4-[2-(5-methyl-2-phenyl-1,3-oxazol-4-yl)ethoxy]phenyl}propanoic acid, reference compound]	–	maintained glycemic control	lowered insulin	–	43±1.0	evident	–	–	120
